Literature values, collected in article PMC9747611 (Hypertension Research, 2022).

System: aldosterone synthase
Details: cited from earlier work

N#Cc1ccc([C@H]2CCc3cncn32)c(F)c1 [LCI699]
increase in 11-deoxycorticosterone levels: up to 10 fold
